Columns and labels:
vasopressin V2 = assay: Vasopressin V2 Antagonist Activity in Conscious Hydrated Rats (diuretic effect); type: in vivo, normal Sprague-Dawley rats; conditions: 30 mg/kg orally, AVP 0.4 μg/kg i.p.
Experimental: Conscious hydrated rats are treated with compounds under study from 0.1 to 100 mg/kg orally or vehicle. Two to four rats are used for each compound. One hour later, arginine vasopressin (AVP, antidiuretic hormore, ADH) dissolved in peanut oil is administered at 0.4 μg/kg intraperitoneally. Two rats in each test would not receive arginine vasopressin but only the vehicle (peanut oil) to serve as water-loading control. Twenty minutes later each rat is given 30 mL/kg of deionized water orally by gavage and is placed individually in a metabolic cage equipped with a funnel and a graduated glass cylinder to collect urine for four hours. Urine volume is measured and osmolality analyzed by use of a Fiske One-Ten osmometer (Fiske Assoc., Norwood, Mass., USA). Urinary sodium, potassium, and chloride are analyzed by use of ion-specific electrodes in a Beckman E3 (Electrolyte 3) Analyzer. In the following results, […] and decreased osmolality relative to AVP-control indicates activity.

[1] = target: vasopressin V1 receptor (rat liver plasma membranes) (Rattus norvegicus, UniProt P30560); assay: Binding Assay to Rat Hepatic V1 Receptors; conditions: rat hepatic V1
Chain of vasopressin V1 receptor (rat liver plasma membranes) (P30560 whole entry): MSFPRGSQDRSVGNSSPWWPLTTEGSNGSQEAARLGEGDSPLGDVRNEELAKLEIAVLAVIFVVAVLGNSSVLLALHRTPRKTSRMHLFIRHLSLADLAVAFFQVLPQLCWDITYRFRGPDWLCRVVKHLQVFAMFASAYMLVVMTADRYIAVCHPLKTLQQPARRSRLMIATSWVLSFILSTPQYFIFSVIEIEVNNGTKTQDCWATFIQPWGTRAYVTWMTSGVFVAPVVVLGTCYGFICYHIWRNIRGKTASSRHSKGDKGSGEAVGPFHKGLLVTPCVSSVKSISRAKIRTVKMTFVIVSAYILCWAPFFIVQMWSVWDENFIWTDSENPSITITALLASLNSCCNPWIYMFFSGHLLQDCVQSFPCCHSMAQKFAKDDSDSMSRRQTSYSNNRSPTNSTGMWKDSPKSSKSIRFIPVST
Experimental: Rat liver plasma membranes expressing the vasopressin V1 receptor subtypes are isolated by sucrose density gradient according to the method described by Lesko et al., (1973). These membranes are quickly suspended in 50.0 mM Tris.HCl buffer, pH 7.4, containing 0.2% bovine serum albumin (BSA) and 0.1 mM phenylmethylsulfonylfluoride (PMSF) and kept frozen at -70° C. until used in subsequent binding experiments. For binding experiments, the following is added to the wells of a ninety-six well format microtiter plate: 100 μl of 100.0 mM Tris.HCl buffer containing 10.0 mM MgCl2, 0.2% heat inactivated BSA and a mixture of protease inhibitors: leupeptin, 1.0 mg %; aprotinin, 1.0 mg %; 1,10-phenanthroline,2.0 mg %; trypsin inhibitor, 10.0 mg % and 0.1 mM PMSF, 20.0 μl of [phenylalanyl-3,4,5,-^3 H] vasopressin (S.A. 45.1 Ci/mmole) at 0.8 nM, and the reaction initiated by the addition of 80 μl of tissue membranes containing 20 μg of tissue protein. The plates are kept undisturbed on the bench top at room temperature for 120 min. to reach equilibrium. Non-specific samples are assayed in the presence of 0.1 μM of the unlabeled antagonist phenylalanylvasopressin, added in 20.0 μl volume.
For test compounds, these are solubilized in 50% dimethylsulfoxide (DMSO) and added in 20.0 μl volume to a final incubation volume of 200 μl. Upon completion of binding, the content of each well is filtered off, using a Brandel® cell Harvester (Gaithersburg, Md.). The radioactivity trapped on the filter disk by the ligand-receptor complex is assessed by liquid scintillation counting in a Packard LS Counter, with an efficiency of 65% for tritium.

vasopressin V1 = assay: Vasopressin V1 Antagonist Activity in Conscious Rats (vasopressin vasopressor response); type: in vivo, rat (spontaneously hypertensive rats); parameters: Average Change: unit not given here; conditions: 10 mg/kg i.v.
Experimental: Conscious rats are restrained in a supine position with elastic tape. The area at the base of the tail is locally anesthetized by subcutaneous infiltration with 2% procaine (0.2 ml). Using aseptic technique the ventral caudal tail artery is isolated and a cannula made of PE 10 and 20 (heat-fused) tubing is passed into the lower abdominal aorta. The cannula is secured, heparinized (1000 i.u./cc), sealed and the wound closed with one or two stitches of Dexon 4-0. The caudal vein is also cannulated in the same manner for intravenous drug administration. The duration of the surgery is approximately 5 minutes. Additional local anesthesia (2% procaine or lidocaine) is provided as needed.
The animals are placed in plastic restraining cages in an upright position. The cannula is attached to a Statham P23Db pressure transducer and pulsatile blood pressure is recorded. […] The vasopressin injections are repeated 30, 60, 90, 120, 180, 240 and 300 min. later. Percentage of antagonism by the compound is calculated using the pre-drug vasopressin vasopressor response as 100%.

[2] = target: T1, rat kidney medullary V2 receptors (Rattus norvegicus, UniProt Q00788); assay: Binding Assay to Rat Kidney Medullary V2 Receptors; conditions: rat kidney medullary V2
T1 construct: Medullary tissues from rat kidneys are dissected out; from tissue; host or cells: rat kidney medulla membranes
T1 sequence (Q00788 whole entry): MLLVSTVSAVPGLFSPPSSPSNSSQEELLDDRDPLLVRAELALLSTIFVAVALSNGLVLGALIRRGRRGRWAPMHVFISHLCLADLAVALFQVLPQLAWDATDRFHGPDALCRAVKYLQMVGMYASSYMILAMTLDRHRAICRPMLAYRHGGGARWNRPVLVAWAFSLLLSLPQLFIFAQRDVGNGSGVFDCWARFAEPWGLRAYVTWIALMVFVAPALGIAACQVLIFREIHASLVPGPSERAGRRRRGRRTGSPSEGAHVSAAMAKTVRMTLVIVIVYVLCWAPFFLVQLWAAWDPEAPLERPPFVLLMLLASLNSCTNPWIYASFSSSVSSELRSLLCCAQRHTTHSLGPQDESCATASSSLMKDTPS
Experimental: Medullary tissues from rat kidneys are dissected out, cut into small pieces and soaked in a […] sodium chloride solution containing 1.0 mM EDTA with many changes of the liquid phase, until the solution is clear of blood. The tissue is homogenized in a 0.25M sucrose solution containing 1.0 mM EDTA and 0.1 mM PMSF using a Potter-Elvehjem homogenizer with a teflon pestle. The homogenate is filtered through several layers (4 layers) of cheese cloth. The filtrate is rehomogenized using a dounce homogenizer, with a tight fitting pestle. The final homogenate is centrifuged at 1500×g for 15 min. The nuclear pellet is discarded and the supernatant fluid recentrifuged at 40,000×g for 30 min. The resulting pellet formed contains a dark inner part with the exterior, slightly pink. The pink outer part is suspended in a small amount of 50.0 mM Tris.HCl buffer, pH 7.4. The protein content is determined by the Lowry's method (Lowry et al., J. Biol. Chem., 1953). The membrane suspension is stored at -70° C., in 50.0 mM Tris.HCl, containing 0.2% inactivated BSA and 0.1 mM PMSF in aliquots of 1.0 ml containing 10.0 mg protein per ml of suspension until use in subsequent binding experiments.
For binding experiments, the following is added in μl volume to wells of a 96 well format of a microtiter plate: 100.0 μl of 100.0 mM Tris.HCl buffer containing 0.2% heat inactivated BSA, 10.0 mM MgCl2 and a mixture of protease inhibitors: leupeptin, 1.0 mg %; aprotinin, 1.0 mg %; 1,10-phenanthroline, 2.0 mg %; trypsin inhibitor, 10.0 mg % and 0.1 mM PMSF, 20.0 μl of [^3 H] Arginine^8, vasopressin (S.A. 75.0 Ci/mmole) at 0.8 nM and the reaction initiated by the addition of 80.0 μl of tissue membranes (200.0 μg tissue protein). The plates are left undisturbed on the bench top for 120 min to reach equilibrium. Non-specific binding is assessed in the presence of 1.0 μM of unlabeled ligand, added in 20 μl volume. For test compounds, these are solubilized in 50% dimethylsulfoxide (DMSO) and added in 20.0 μl volume to a final incubation volume of 200 μl. Upon completion of binding, the content of each well is filtered off, using a Brandel® cell Harvester (Gaithersburg, Md.). The radioactivity trapped on the filter disk by the ligand-receptor complex is assessed by liquid scintillation counting in a Packard LS Counter, with an efficiency of 65% for tritium.

Compound: O=C(Nc1ccc(C(=O)N2Cc3ccccc3Cc3ccccc32)cc1)c1ccccc1Cl [Example 14, N-[4-[(6,11-Dihydro-5H-dibenz[b,e]azepin-5-yl)-carbonyl]phenyl]-2-chlorobenzamide]
- Osmolality (vasopressin V2): 739 mOsm/kg
- Urine Volume (vasopressin V2): 13.1 ml/4 hrs.
- IC50 [1]: 57 nM
- Average Change (vasopressin V1; VAS 0.01 i.u./kg, 30 min): 11
- Inhibition (vasopressin V1; VAS 0.01 i.u./kg, 30 min): 51%
- Average Change (vasopressin V1; VAS 0.01 i.u./kg, 60 min): 12
- Inhibition (vasopressin V1; VAS 0.01 i.u./kg, 60 min): 47%
- Average Change (vasopressin V1; VAS 0.01 i.u./kg, 90 min): 13.5
- Inhibition (vasopressin V1; VAS 0.01 i.u./kg, 90 min): 40%
- Average Change (vasopressin V1; VAS 0.01 i.u./kg, 120 min): 16
- Inhibition (vasopressin V1; VAS 0.01 i.u./kg, 120 min): 29%
- Average Change (vasopressin V1; VAS 0.01 i.u./kg, 180 min): 21.5
- Inhibition (vasopressin V1; VAS 0.01 i.u./kg, 180 min): 4%
- Average Change (vasopressin V1; VAS 0.01 i.u./kg, 240 min): 26.5
- Inhibition (vasopressin V1; VAS 0.01 i.u./kg, 240 min): -18%
- Average Change (vasopressin V1; VAS 0.01 i.u./kg, 300 min): 24.5
- Inhibition (vasopressin V1; VAS 0.01 i.u./kg, 300 min): -9%
- Average Change (vasopressin V1; VAS 0.02 i.u./kg, 30 min): 23
- Inhibition (vasopressin V1; VAS 0.02 i.u./kg, 30 min): 56%
- Average Change (vasopressin V1; VAS 0.02 i.u./kg, 60 min): 22
- Inhibition (vasopressin V1; VAS 0.02 i.u./kg, 60 min): 58%
- Average Change (vasopressin V1; VAS 0.02 i.u./kg, 90 min): 29.5
- Inhibition (vasopressin V1; VAS 0.02 i.u./kg, 90 min): 43%
- Average Change (vasopressin V1; VAS 0.02 i.u./kg, 120 min): 23.5
- Inhibition (vasopressin V1; VAS 0.02 i.u./kg, 120 min): 55%
- Average Change (vasopressin V1; VAS 0.02 i.u./kg, 180 min): 30.5
- Inhibition (vasopressin V1; VAS 0.02 i.u./kg, 180 min): 41%
- Average Change (vasopressin V1; VAS 0.02 i.u./kg, 240 min): 32
- Inhibition (vasopressin V1; VAS 0.02 i.u./kg, 240 min): 38%
- Average Change (vasopressin V1; VAS 0.02 i.u./kg, 300 min): 33
- Inhibition (vasopressin V1; VAS 0.02 i.u./kg, 300 min): 37%
- IC50 [2]: 66 nM

From patent US5834461A, “Tricyclic benzazepine vasopressin antagonists” (American Cyanamid Company, priority 1997, dated 1998)
